Source: patent US20260027068A1, “METHODS OF ADM[…]-KETAMINE” (Perception Neuroscience, Inc., priority 2022, published 2026)

How the values were obtained:
[1] = Phase 1 single ascending dose plasma pharmacokinetics of 40-minute IV infusion of R(−)-ketamine and its metabolites; details: for Tmax: all dose levels 5 mg to 150 mg; for AUC(0-inf) / Cmax / AUC(0-t): iv
Protocol: This was a Phase 1 randomized, placebo-controlled, double-blind, single dose study conducted at one center. […] The pharmacokinetic (PK) population was 36 subjects, with 12 additional subjects receiving placebo. […] Subjects were male or female healthy subjects, 18 to 65 years of age. […] Cohort 1 was dosed at 5 mg, followed by Cohort 2 at 15 mg, Cohort 3 at 30 mg, Cohort 4 at 60 mg, Cohort 5 at 100 mg, and Cohort 6 at 150 mg R(−)-ketamine. […] In addition to the safety and tolerability data, the study also evaluated the dose-related PK of each 40-minute IV infusion of R(−)-ketamine.
To evaluate the pharmacokinetics of R(−)-ketamine, blood was drawn from subjects for PK analysis at the following sampling times: pre-dose (−30 minutes); and from the start of infusion (5, 10, and 15 minutes [±1 minute], 30 minutes [±5 minutes], 40 minutes [immediately prior to infusion completion], 1, 1.5, 2, and 3 hours [±5 minutes], 4 and 8 hours [±10 minutes], 12 and 24 hours [±15 minutes]).
Plasma PK parameters of R(−)-ketamine and its metabolites (norketamine, 6-hydroxynorketamine, and dehydronorketamine) evaluated on include the following: • Maximum plasma concentration (Cmax), • Time to Cmax (Tmax), • Area under the plasma concentration curve (AUC0-t, AUC0-∞) • Elimination rate constant (λz), • Half-live (t½) • Clearance (CL, P R(−)-ketamine only), • Volume of distribution (Vz, R(−)-ketamine only), and • Metabolite to parent ratios (area under curve [AUC] and Cmax).
The dose proportionality was assessed both visually and statistically using calculated Cmax and AUC values. […] Continuous variables: Descriptive statistics included the number of non-missing values (n), arithmetic mean, standard deviation (SD), median, minimum, and maximum values. […] For PK concentration data, the number of non-missing values, number of below limit of quantification (BLQ) values, arithmetic mean, SD, median, minimum, maximum, coefficient of variation (CV %), geometric mean, and geometric CV (geo CV %) values are presented. For PK parameter data, the number of non-missing values, arithmetic mean, SD, median, minimum, maximum, CV %, geometric mean, and geometric CV (geo CV %) values are presented.
Intravenous administration of allocated blinded study drug (Morning, Day 1) was infused over 40 minutes. Blood collection for plasma PK analysis occurred at infusion 5, 10, 15, 30, 40, 60, and 90 minutes, and 2, 3, 4, 8, and 12 hours after the start of infusion.
Plasma concentrations of R(−)-ketamine and its metabolites norketamine, 6-hydroxynorketamine, and dehydronorketamine were determined using a suitable validated analytical method with a lower limit of quantitation (LOQ) of 1 ng/mL.
The linearity of the increase in exposure with respect to the increasing dose administered was evaluated for Cmax and AUC for R(−)-ketamine and its metabolites (norketamine, 6-hydroxynorketamine and dehydronorketamine). […] The power model was used to estimate the slope parameter and the 90% confidence intervals for the slope.

[2] = Diastolic blood pressure (vital signs)
Protocol: The Investigational Medicinal Product (IMP) R(−)-ketamine hydrochloride in sterile water for intravenous injection was investigated as an […] treatment of TRD. The International Union of Pure and Applied Chemistry (IUPAC) name is of the IMP is (2R)-2-(2-chlorophenyl)-2-(methylamino)cyclohexan-1-one. Subjects received the solution at either 30 mg or 60 mg dose, or a placebo. The IMP or placebo was administered on Day 1 as a single IV infusion via an electronic infusion pump over 40 minutes. The duration of study participation for each subject was up to 29 days including a screening period, a 3-day in-clinic visit, and 2 follow-up visits. 101 subjects were enrolled in approximately 20 study centers in the EU and the US.
Tympanic or temporal temperature, heart rate, blood pressure (SBP/DBP), respiratory rate, and SpO2 were assessed. Blood pressure and pulse measurements will be assessed with a completely automated device while the subject is supine or semi-supine. Manual techniques will be used only if an automated device is not available. Blood pressure and pulse measurements should be preceded by at least 5 minutes of rest for the subject in a quiet setting without distractions (e.g., television, cell phones). An abnormal blood pressure value at screening may be repeated once after 5 minutes of relaxation to determine the subject's eligibility. Blood pressure was recorded using the same arm and position (supine or semi-supine) throughout the study, where possible. Vital signs (to be taken before blood collection for laboratory tests) consisted of 1 pulse and 3 blood pressure measurements (3 consecutive blood pressure readings will be recorded at intervals of at least 1 minute). The average of the 3 blood pressure readings was recorded in the CRF. A pulse oximeter was used to measure peripheral capillary oxygen saturation (SpO2) continuously from pre-dose until 4-hours post-dose. A pulse oximeter was clipped onto the finger or foot of the subject, and light will be sent through the finger or foot and measured on the other side.
In these tables, baseline value is defined as the last non-missing value prior to study drug administration.

[3] = target: CYP2C19 (Homo sapiens, UniProt P33261); test: In vitro CYP inhibition
Sequence of CYP2C19 (P33261 whole entry): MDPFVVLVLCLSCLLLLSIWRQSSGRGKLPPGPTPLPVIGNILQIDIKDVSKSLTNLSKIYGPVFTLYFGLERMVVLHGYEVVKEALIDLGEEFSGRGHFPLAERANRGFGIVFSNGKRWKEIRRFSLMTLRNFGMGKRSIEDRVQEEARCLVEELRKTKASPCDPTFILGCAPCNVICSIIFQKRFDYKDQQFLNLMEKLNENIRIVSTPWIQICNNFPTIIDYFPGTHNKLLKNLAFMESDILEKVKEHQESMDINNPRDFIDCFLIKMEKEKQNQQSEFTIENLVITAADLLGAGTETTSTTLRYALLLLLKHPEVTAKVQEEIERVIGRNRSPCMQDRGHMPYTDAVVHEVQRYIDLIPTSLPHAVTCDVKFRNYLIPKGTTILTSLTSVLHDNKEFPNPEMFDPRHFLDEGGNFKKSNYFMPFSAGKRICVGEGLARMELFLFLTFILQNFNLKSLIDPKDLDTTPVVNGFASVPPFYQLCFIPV

[4] = target: T1, CYP2B6 (Homo sapiens, UniProt P20813); details: in vitro
T1 sequence (P20813 1-491): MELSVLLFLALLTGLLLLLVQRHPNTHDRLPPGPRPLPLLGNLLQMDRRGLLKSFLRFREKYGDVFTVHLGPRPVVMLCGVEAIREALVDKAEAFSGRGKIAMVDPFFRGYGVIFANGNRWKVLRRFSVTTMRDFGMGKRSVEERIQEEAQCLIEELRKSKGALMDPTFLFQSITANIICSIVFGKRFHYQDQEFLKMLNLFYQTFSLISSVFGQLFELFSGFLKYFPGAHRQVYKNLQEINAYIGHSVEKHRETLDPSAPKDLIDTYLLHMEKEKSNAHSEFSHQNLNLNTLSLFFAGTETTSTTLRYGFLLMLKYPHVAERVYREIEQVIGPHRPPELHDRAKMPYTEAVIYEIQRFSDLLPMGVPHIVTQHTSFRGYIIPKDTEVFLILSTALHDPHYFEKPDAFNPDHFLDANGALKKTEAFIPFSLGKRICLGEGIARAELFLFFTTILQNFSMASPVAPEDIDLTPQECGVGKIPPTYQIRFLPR

[5] = both, human, plasma, intravenous

CN[C@@]1(c2ccccc2Cl)CCCCC1=O.Cl [R(−)-ketamine, (2R)-2-(2-chlorophenyl)-2-(methylamino)cyclohexan-1-one]
Earliest timepoint at which concentrations were quantifiable in all subjects ([1]; after start of infusion, LOQ 1 ng/mL): 5 min | Vd [1, 5]: 345 to 921 L | clearance [1, 5]: 1280 to 1630 mL/min | half-life [1, 5]: 184 to 433 min | Tmax ([1]; both, human, plasma, intravenous, Median plasma Tmax): 40 min | Tmax ([1]; both, human, plasma, intravenous, Plasma Tmax range): 15 to 40 min | AUC(0-inf) ([1]; both, human, plasma, 5 mg): 64 ng·h/mL | Cmax ([1]; both, human, plasma, 5 mg): 33.9 ng/mL | AUC(0-t) ([1]; both, human, plasma, 5 mg, Arithmetic mean AUC0-24h, 5 mg R(−)-ketamine IV): 63.5 ng·h/mL | AUC(0-t) ([1]; both, human, plasma, 5 mg, Arithmetic mean AUC0-t, 5 mg R(−)-ketamine IV): 57.5 ng·h/mL | AUC(0-inf) ([1]; both, human, plasma, 150 mg): 1820 ng·h/mL | Cmax ([1]; both, human, plasma, 150 mg): 780 ng/mL | AUC(0-t) ([1]; both, human, plasma, 150 mg, Arithmetic mean AUC0-24h, 150 mg R(−)-ketamine IV): 1720 ng·h/mL | AUC(0-t) ([1]; both, human, plasma, 150 mg, Arithmetic mean AUC0-t, 150 mg R(−)-ketamine IV): 1720 ng·h/mL | Subjects with change from baseline diastolic blood pressure >25 mmHg, number ([2]; 30 mg): 1 n | Subjects with change from baseline diastolic blood pressure >25 mmHg, percent ([2]; 30 mg): 3.0% | Subjects with post-baseline diastolic blood pressure >110 mmHg, number ([2]; 30 mg): 0 n | Subjects with post-baseline diastolic blood pressure >110 mmHg, percent ([2]; 30 mg): 0.0% | Diastolic Blood Pressure: Mean ([2]; 30 mg, Day 1, 15 minutes): 77.4 mmHg | Diastolic Blood Pressure: Median ([2]; 30 mg, Day 1, 15 minutes): 79.0 mmHg | Diastolic Blood Pressure: Mean ([2]; 30 mg, Day 1, 40 minutes): 77.7 mmHg | Diastolic Blood Pressure: Median ([2]; 30 mg, Day 1, 40 minutes): 81.0 mmHg | Diastolic Blood Pressure: Mean ([2]; 30 mg, Day 1, 60 minutes): 75.4 mmHg | Diastolic Blood Pressure: Median ([2]; 30 mg, Day 1, 60 minutes): 75.0 mmHg | Diastolic Blood Pressure: Mean ([2]; 30 mg, Day 1, 2 hours): 77.3 mmHg | Diastolic Blood Pressure: Median ([2]; 30 mg, Day 1, 2 hours): 78.0 mmHg | Diastolic Blood Pressure: Mean ([2]; 30 mg, Day 1, 4 hours): 76.1 mmHg | Diastolic Blood Pressure: Median ([2]; 30 mg, Day 1, 4 hours): 76.0 mmHg | Diastolic Blood Pressure: Mean ([2]; 30 mg, Day 1, 6 hours): 75.2 mmHg | Diastolic Blood Pressure: Median ([2]; 30 mg, Day 1, 6 hours): 75.0 mmHg | Diastolic Blood Pressure: Mean ([2]; 30 mg, Day 2 - Discharge): 74.7 mmHg | Diastolic Blood Pressure: Median ([2]; 30 mg, Day 2 - Discharge): 75.0 mmHg | Diastolic Blood Pressure: Mean ([2]; 30 mg, Day 8): 75.8 mmHg | Diastolic Blood Pressure: Median ([2]; 30 mg, Day 8): 78.0 mmHg | Diastolic Blood Pressure: Mean ([2]; 30 mg, Day 15): 78.9 mmHg | Diastolic Blood Pressure: Median ([2]; 30 mg, Day 15): 79.0 mmHg | Diastolic Blood Pressure: Change from Baseline, Mean ([2]; 30 mg, to Day 1, 15 minutes): 0.5 mmHg | Diastolic Blood Pressure: Change from Baseline, Median ([2]; 30 mg, to Day 1, 15 minutes): 2.0 mmHg | Diastolic Blood Pressure: Change from Baseline, Mean ([2]; 30 mg, to Day 1, 40 minutes): 1.0 mmHg | Diastolic Blood Pressure: Change from Baseline, Median ([2]; 30 mg, to Day 1, 40 minutes): 1.0 mmHg | Diastolic Blood Pressure: Change from Baseline, Mean ([2]; 30 mg, to Day 1, 60 minutes): −1.2 mmHg | Diastolic Blood Pressure: Change from Baseline, Median ([2]; 30 mg, to Day 1, 60 minutes): −1.5 mmHg | Diastolic Blood Pressure: Change from Baseline, Mean ([2]; 30 mg, to Day 1, 2 hours): 0.5 mmHg | Diastolic Blood Pressure: Change from Baseline, Median ([2]; 30 mg, to Day 1, 2 hours): −1.0 mmHg | Diastolic Blood Pressure: Change from Baseline, Mean ([2]; 30 mg, to Day 1, 4 hours): −0.6 mmHg | Diastolic Blood Pressure: Change from Baseline, Median ([2]; 30 mg, to Day 1, 4 hours): −1.0 mmHg | Diastolic Blood Pressure: Change from Baseline, Mean ([2]; 30 mg, to Day 1, 6 hours): −1.5 mmHg | Diastolic Blood Pressure: Change from Baseline, Median ([2]; 30 mg, to Day 1, 6 hours): −3.0 mmHg | Diastolic Blood Pressure: Change from Baseline, Mean ([2]; 30 mg, to Day 2 - Discharge): −2.0 mmHg | Diastolic Blood Pressure: Change from Baseline, Median ([2]; 30 mg, to Day 2 - Discharge): −2.0 mmHg | Diastolic Blood Pressure: Change from Baseline, Mean ([2]; 30 mg, to Day 8): −1.0 mmHg | Diastolic Blood Pressure: Change from Baseline, Median ([2]; 30 mg, to Day 8): −1.0 mmHg | Diastolic Blood Pressure: Change from Baseline, Mean ([2]; 30 mg, to Day 15): 2.1 mmHg | Diastolic Blood Pressure: Change from Baseline, Median ([2]; 30 mg, to Day 15): 1.0 mmHg | Subjects with change from baseline diastolic blood pressure >25 mmHg, number ([2]; 60 mg): 1 n | Subjects with change from baseline diastolic blood pressure >25 mmHg, percent ([2]; 60 mg): 2.9% | Subjects with post-baseline diastolic blood pressure >110 mmHg, number ([2]; 60 mg): 0 n | Subjects with post-baseline diastolic blood pressure >110 mmHg, percent ([2]; 60 mg): 0.0% | Diastolic Blood Pressure: Mean ([2]; 60 mg, Day 1, 15 minutes): 78.8 mmHg | Diastolic Blood Pressure: Median ([2]; 60 mg, Day 1, 15 minutes): 79.5 mmHg | Diastolic Blood Pressure: Mean ([2]; 60 mg, Day 1, 40 minutes): 78.1 mmHg | Diastolic Blood Pressure: Median ([2]; 60 mg, Day 1, 40 minutes): 78.0 mmHg | Diastolic Blood Pressure: Mean ([2]; 60 mg, Day 1, 60 minutes): 79.5 mmHg | Diastolic Blood Pressure: Median ([2]; 60 mg, Day 1, 60 minutes): 77.0 mmHg | Diastolic Blood Pressure: Mean ([2]; 60 mg, Day 1, 2 hours): 75.7 mmHg | Diastolic Blood Pressure: Median ([2]; 60 mg, Day 1, 2 hours): 75.0 mmHg | Diastolic Blood Pressure: Mean ([2]; 60 mg, Day 1, 4 hours): 75.1 mmHg | Diastolic Blood Pressure: Median ([2]; 60 mg, Day 1, 4 hours): 74.0 mmHg | Diastolic Blood Pressure: Mean ([2]; 60 mg, Day 1, 6 hours): 75.8 mmHg | Diastolic Blood Pressure: Median ([2]; 60 mg, Day 1, 6 hours): 76.5 mmHg | Diastolic Blood Pressure: Mean ([2]; 60 mg, Day 2 - Discharge): 77.2 mmHg | Diastolic Blood Pressure: Median ([2]; 60 mg, Day 2 - Discharge): 77.0 mmHg | Diastolic Blood Pressure: Mean ([2]; 60 mg, Day 8): 78.7 mmHg | Diastolic Blood Pressure: Median ([2]; 60 mg, Day 8): 78.0 mmHg | Diastolic Blood Pressure: Mean ([2]; 60 mg, Day 15): 77.5 mmHg | Diastolic Blood Pressure: Median ([2]; 60 mg, Day 15): 78.0 mmHg | Diastolic Blood Pressure: Change from Baseline, Mean ([2]; 60 mg, to Day 1, 15 minutes): 2.2 mmHg | Diastolic Blood Pressure: Change from Baseline, Median ([2]; 60 mg, to Day 1, 15 minutes): 1.5 mmHg | Diastolic Blood Pressure: Change from Baseline, Mean ([2]; 60 mg, to Day 1, 40 minutes): 2.4 mmHg | Diastolic Blood Pressure: Change from Baseline, Median ([2]; 60 mg, to Day 1, 40 minutes): 2.0 mmHg | Diastolic Blood Pressure: Change from Baseline, Mean ([2]; 60 mg, to Day 1, 60 minutes): 3.2 mmHg | Diastolic Blood Pressure: Change from Baseline, Median ([2]; 60 mg, to Day 1, 60 minutes): 4.0 mmHg | Diastolic Blood Pressure: Change from Baseline, Mean ([2]; 60 mg, to Day 1, 2 hours): −0.1 mmHg | Diastolic Blood Pressure: Change from Baseline, Median ([2]; 60 mg, to Day 1, 2 hours): 0.0 mmHg | Diastolic Blood Pressure: Change from Baseline, Mean ([2]; 60 mg, to Day 1, 4 hours): −0.6 mmHg | Diastolic Blood Pressure: Change from Baseline, Median ([2]; 60 mg, to Day 1, 4 hours): 0.0 mmHg | Diastolic Blood Pressure: Change from Baseline, Mean ([2]; 60 mg, to Day 1, 6 hours): −0.0 mmHg | Diastolic Blood Pressure: Change from Baseline, Median ([2]; 60 mg, to Day 1, 6 hours): −1.0 mmHg | Diastolic Blood Pressure: Change from Baseline, Mean ([2]; 60 mg, to Day 2 - Discharge): 1.5 mmHg | Diastolic Blood Pressure: Change from Baseline, Median ([2]; 60 mg, to Day 2 - Discharge): 1.0 mmHg | Diastolic Blood Pressure: Change from Baseline, Mean ([2]; 60 mg, to Day 8): 3.0 mmHg | Diastolic Blood Pressure: Change from Baseline, Median ([2]; 60 mg, to Day 8): 3.0 mmHg | Diastolic Blood Pressure: Change from Baseline, Mean ([2]; 60 mg, to Day 15): 1.7 mmHg | Diastolic Blood Pressure: Change from Baseline, Median ([2]; 60 mg, to Day 15): 1.0 mmHg | CYP2C19 inhibition [3]: inhibitor | CYP2B6 inhibition [4]: inhibitor
